Assay results reported in publication PMC7822874, “Chemoprotective antimalarials identified through quantitative high-throughput screening of Plasmodium blood and liver stage parasites” (Scientific Reports, 2021).
Like-named read-outs stand apart in the source and are kept apart here.

Assays:
HepG2 = conditions: human, hepg2 cells, 48 h
in vitro [1] = conditions: human, hepg2 cells
in vitro [2] = conditions: human
[3] = tested on: Plasmodium falciparum Dd2 asexual blood stage parasites; test: microbe, parasite or virus in culture; parameters: species or system Plasmodium falciparum Dd2 in human erythrocytes; single determination (one 11-point concentration-response curve); conditions: Plasmodium falciparum, DD2, Erythrocyte, 72 h; read-out: AC50
[4] = tested on: P. berghei-ANKA-GFP-LucCON liver stage parasites in HepG2-A16-CD81EGFP cells; test: P. berghei liver stage Pb-Luc assay, Method 1 (UCSD, 1536-well); format: cell-based, Plasmodium berghei; conditions: Method 1; for Max Resp (signal direction of the dose response): Decrease = decreasing P. berghei viability with dose, Increase = increasing signal, Inactive = no dose response
[5] = HepG2-A16-CD81EGFP cells, uninfected
[6] = Plasmodium berghei, Hill fit, 50% of maximum activity response, read-out: AC50
[7] = Plasmodium berghei, log10 of molar AC50 from Hill fit, read-out: Log AC50 (converted)

Row | SMILES | Log AC50 (M) (HepG2) | CC50 at 48 h (in vitro [1]) | AC50 [3] | viability at 48 h, 1 µM (in vitro [2]; [5]) | viability at 48 h, 3 µM (in vitro [2]; [5]) | further results
1 | Cc1cnc(C(=O)Nc2cccc3cccnc23)cn1 [MLS000033120-01] | -6.2143 M | 0.611 µM | 2.66 µM | – | – | viability at 66 h (in vitro [2]; [5]): 105%
2 | c1ccc(-c2nc(N3CCCCCC3)c3ccccc3n2)nc1 [MLS000042263-01] | -5.5643 M | 2.73 µM | 1.68 µM | 102% | 88% | –
3 | N=c1ccn(Cc2ccc(Cl)cc2)cc1 [MLS000080110-01] | -4.4643 M | 34.3 µM | 8.41 µM | – | – | viability at 66 h (in vitro [2]; [5]): 101%
4 | CCN1CC=C(c2c[nH]c3ccccc23)CC1 [MLS000093713-01] | -4.6143 M | 24.3 µM | 4.22 µM | – | – | viability at 66 h (in vitro [2]): 103%
5 | CCc1ccc(Nc2cc(=O)n(C3CCCCC3)c(=O)[nH]2)cc1 [MLS000094379-01] | -4.3643 M | 43.2 µM | – | – | – | viability at 66 h (in vitro [2]; [5]): 104%
6 | Cc1cc(O)c(-c2cc(C(=O)Nc3sc4c(c3C(=O)NCc3ccco3)CCC4)[nH]n2)cc1C [MLS000331999-01] | -4.4643 M | 34.3 µM | – | – | – | viability at 66 h (in vitro [2]; [5]): 106%; Max Resp (signal direction of the dose response) [4]: Inactive
7 | Cc1nc2c(=O)n(C)c(=O)nc-2n(C)n1 [MLS000528498-01] | -6.0643 M | 0.862 µM | 0.422 µM | – | – | Max Resp (signal direction of the dose response) [4]: Decrease; AC50 [4, 6]: 0.056 µM; AC50 [4, 7]: 0.0562 µM
8 | CCNc1nc(NC(C)(C)C)nc(N2CCCC2)n1 [MLS000528993-01] | -4.3643 M | 43.2 µM | 2.37 µM | – | – | viability at 66 h (in vitro [2]; [5]): 99.9%
9 | CC(=O)Nc1ccc(NC2=Nc3ccccc3N3C2=Nc2c(c(C)nn2-c2ccccc2)C3c2ccccc2)cc1 (centres unmarked) [MLS000555438-01] | -4.3143 M | 48.5 µM | 6.68 µM | – | – | viability at 66 h (in vitro [2]; [5]): 95.3%
10 | O=C(NC(c1ccc(Cl)cc1)c1cc(Cl)c2cccnc2c1O)c1cccnc1 (centres unmarked) [MLS000573463-01] | -4.3643 M | 43.2 µM | 5.96 µM | 84% | 68% | –
11 | CN1C2CCC1/C(=C/c1ccccn1)C(=O)/C2=C\c1ccccn1 [MLS000702810-01] | -4.8143 M | 15.3 µM | – | – | – | viability at 48 h (in vitro [2]): 76.4%; viability at 48 h, 1 µM (in vitro [2]): 76.4%; Max Resp (signal direction of the dose response) [4]: Decrease; AC50 [4, 6]: 0.794 µM; AC50 [4, 7]: 0.794 µM
12 | c1ccc2cc3c(NCCN4CCOCC4)ccnc3cc2c1 [MLS000702892-01] | -4.3643 M | 43.2 µM | 1.68 µM | 89% | 92% | –
13 | CCOc1ccc(Nc2nc(NCC3CCCO3)c3ccccc3n2)cc1 (centres unmarked) [MLS000724397-01] | -4.3643 M | 43.2 µM | 1.88 µM | 104% | 83% | –
14 | CC1(C)N=C(N)N=C(N)N1c1ccc(OCCCOc2ccccc2)c(Cl)c1 [MLS000738223-01] | -5.1143 M | 7.69 µM | 2.99 µM | 39% | 32% | –
15 | OC(c1cc(-c2ccc(C(F)(F)F)cc2)nc(C(F)(F)F)c1)C1CCCCN1 (centres unmarked) [MLS000757046-01] | -4.3643 M | 43.2 µM | 0.15 µM | 109% | 105% | –
16 | Cc1cccc(Oc2nc(-c3ccccn3)nc3ccccc23)c1 [MLS000769548-01] | -4.9143 M | 12.2 µM | 7.5 µM | 106% | – | viability at 48 h (in vitro [2]; [5]): 106%
17 | CCN1CCN(Cc2ccc(NC(=O)c3ccc(C)c(NC(=O)c4cnc5cc(C(F)(F)F)ccc5c4O)c3)cc2C(F)(F)F)CC1 [MLS000911561-01] | -4.4643 M | 34.3 µM | 0.531 µM | 107% | 104% | –
18 | c1ccc(-[n+]2nc(Nc3cccc4ccccc34)sc2-c2c3ccccc3cc3ccccc23)cc1 [MLS000949879-01] | -4.3643 M | 43.2 µM | 5.96 µM | – | – | viability at 66 h (in vitro [2]; [5]): 95.1%
19 | CCOC(=O)c1sc(NC(=O)CNCc2ccccn2)c(C(=O)OCC)c1C [MLS001005083-01] | -4.3643 M | 43.2 µM | – | 101% | 96% | –

Row | SMILES | Log AC50 (M) (HepG2) | CC50 at 48 h (in vitro [1]) | AC50 [3] | viability at 48 h, 1 µM (in vitro [2]; [5]) | viability at 48 h, 3 µM (in vitro [2]; [5]) | further results
20 | CCN(CC)CCn1c(=N)n(CC(=O)c2ccc(Br)s2)c2ccccc21 [MLS001045932-01] | -4.5143 M | 30.6 µM | 5.31 µM | 91% | 91% | –
21 | Cc1c2ccncc2c(C)c2c1[nH]c1ccccc12 [MLS001076505-01] | -4.3643 M | 43.2 µM | 3.35 µM | – | – | viability (in vitro [2]): 102%
22 | CN(C)CC(CCC(CN(C)C)C(O)(c1ccccc1)c1ccccc1)C(O)(c1ccccc1)c1ccccc1 (centres unmarked) [MLS001173677-01] | -4.4643 M | 34.3 µM | 2.11 µM | 101% | 98% | –
23 | O=C(Nc1nc(-c2ccccn2)cs1)Nc1ccc(F)cc1F [MLS001175659-01] | -4.7643 M | 17.2 µM | 5.31 µM | 94% | 79% | –
24 | COc1cc(OC)c(NC2=CC(=O)C(=O)c3ccccc32)cc1Cl [MLS001198657-01] | -4.3643 M | 43.2 µM | 2.99 µM | 93% | 59% | –
25 | CN1CCN(c2ccc(Nc3ccnc4cc(Cl)ccc34)cc2)CC1 [MLS001203414-01] | -4.6143 M | 24.3 µM | 0.188 µM | 86% | 90% | –
26 | CCn1c(/C=C/c2cc(Br)ccc2O)nc2ccccc2c1=O [MLS001205008-01] | -4.8643 M | 13.7 µM | 4.22 µM | 104% | 101% | –
27 | COc1ccc(/C=N/Nc2cc(C)nc3ccccc23)cc1 [MLS001210939-01] | -4.5143 M | 30.6 µM | 2.11 µM | 92% | 87% | –
28 | CN1CCC(NCCC(c2ccc(F)cc2)c2ccc(Cl)cc2)CC1 (centres unmarked) [MLS001215866-01] | -4.4643 M | 34.3 µM | 4.22 µM | – | – | viability at 66 h (in vitro [2]; [5]): 98.6%
29 | COc1ccc(C2c3ccc4ccccc4c3Oc3ncn(CCCN(C)C)c(=N)c32)cc1 (centres unmarked) [MLS001216280-01] | -4.4643 M | 34.3 µM | 2.99 µM | 109% | 103% | –
30 | C/C(=N\NC(=O)c1cccc(Br)c1)c1ccccn1 [MLS001232242-01] | -5.8643 M | 1.37 µM | 4.73 µM | – | – | Max Resp (signal direction of the dose response) [4]: Decrease; AC50 ([4]; Hill fit, 50% of maximum activity response, read-out: AC50): 0.891 µM; Log AC50 (M) ([4]; log10 of molar AC50 from Hill fit): -6.050 M; AC50 [4, 6]: 0.794 µM; AC50 [4, 7]: 0.794 µM
31 | COc1cc2nc(Nc3ccc(C)c(C)c3)nc(N)c2cc1OC [NCGC00107261-01] | -4.3643 M | 43.2 µM | 0.75 µM | 107% | 97% | –
32 | CCCN(CCC)CCNC(=O)c1cc2c(-c3ccc(Cl)cc3)nn(C)c2s1 [NCGC00108997-01] | -4.3643 M | 43.2 µM | 0.596 µM | 102% | 98% | –
33 | CCc1ccc([S+](=O)([O-])c2nnn3c2nc(Nc2ccc(F)cc2)c2cc(Cl)ccc23)cc1 [NCGC00112284-01] | -4.4643 M | 34.3 µM | 2.11 µM | – | – | viability at 66 h (in vitro [2]; [5]): 105%
34 | CCN1C(=O)C2(CCN([S+](=O)([O-])c3ccc(Cl)cc3C)CC2)c2ccccc21 [NCGC00435870-01] | -4.4643 M | 34.3 µM | 5.31 µM | – | – | –
35 | CC(C)c1nc(-c2ccc(OC3CCN(C(=O)CCc4nc5ccccc5[nH]4)C3)cc2)no1 (centres unmarked) [NCGC00441007-01] | -4.5643 M | 27.3 µM | 15 µM | – | – | –
36 | Cc1noc(C)c1Cc1ccc(C(=O)N2[C@H]3CC[C@@H]2c2cnc(-c4ccccc4)nc2C3)o1 [NCGC00458744-01] | -4.5643 M | 27.3 µM | 9.44 µM | – | – | –
37 | CCOC(=O)CCCOc1cccn2c(=O)c(-c3cc(C)n(-c4ccc(Cl)cc4)n3)c(C)nc12 [NCGC00473250-01] | -4.8143 M | 15.3 µM | 10.6 µM | – | – | –
